Results on 3 compounds are retold here after patent US6420535B1, “6-O-carbamate ketolide derivatives” (Abbott Laboratories, priority 1999, dated 2002).

What all share (assay type): cell-based
One assay has as its system Escherichia coli DC-2. The assay is described as follows: In vitro antibacterial MIC, agar dilution (BHI agar). Particulars: 35-37° C., 20 to 24 hours, unit assumed. The method, then:
(§1) Representative compounds of the present invention were assayed in vitro for antibacterial activity as follows: Twelve petri dishes containing successive aqueous dilutions of the test compound mixed with 10 mL of sterilized Brain Heart Infusion (BHI) agar (Difco 0418-01-5) were prepared. Each plate was inoculated with 1:100 (or 1:10 for slow-growing strains, such as Micrococcus and Streptococcus) dilutions of up to 32 different microorganisms, using a Steers replicator block. The inoculated plates were incubated at 35-37° C. for 20 to 24 hours. In addition, a control plate, using BHI agar containing no test compound, was prepared and incubated at the beginning and end of each test.
(§2) An additional plate containing a compound having known susceptibility patterns for the organisms being tested and belonging to the same antibiotic class as the test compound was also prepared and incubated as a further control, as well as to provide test-to-test comparability.
(§3) After incubation, each plate was visually inspected. The minimum inhibitory concentration (MIC) was defined as the lowest concentration of drug yielding no growth, a slight haze, or sparsely isolated colonies on the innoculum spot as compared to the growth control.

The test system of assay [1] is Streptococcus pneumonia GYR 1171. The assay can be described thus: Separate in vitro antibacterial assay (H. Influenza / S. Pneumonia). The conditions noted are these: protocol as for Table 1, unit assumed. The method, then:
as §1
(§4) An additional plate containing a compound having known susceptibility patterns for the organisms being tested and belonging to the same antibiotic class as the test compound was also prepared and incubated as a further control, as well as to provide test-to-test comparability. Erythromycin A was used for this purpose.
(§5) After incubation, each plate was visually inspected. The minimum inhibitory concentration (MIC) was defined as the lowest concentration of drug yielding no growth, a slight haze, or sparsely isolated colonies on the innoculum spot as compared to the growth control. The results of this assay, which relate to the antibacterial activity of the compounds of the invention, are reported below in Table 1.
(§6) In a separate assay representative compounds of the invention were assayed in vitro for antibacterial activity against H. Influenza Dill AMP R strain and S. Pneumonia, according to the protocol described above. The results of this assay, which relate to the antibacterial activity of compounds of the invention against the H. Influenza Dill AMP R and S. Pneumonia organisms, are shown below in Table 2.

For assay [2], the system named is Streptococcus pneumonia ATCC63O3. The assay is described as above. The conditions noted are these: protocol as for Table 1, unit assumed. The method, then:
as §1, §4, §5, §6

In assay [3] the test system is Streptococcus pneumonia 5649. Described as above. Particulars: protocol as for Table 1, unit assumed. The method, then:
as §1, §4, §5, §6

Assay [4] relates to Haemophilis influenzae DILL AMP R. Described as above. The conditions noted are these: protocol as for Table 1, unit assumed. The method, then:
as §1, §4, §5, §6

Assay [5] relates to Mycobacterium smegmatis ATCC 114. The assay is described as follows: In vitro antibacterial MIC, agar dilution (BHI agar). Particulars: 35-37° C., 20 to 24 hours, unit assumed. The method, then: as §1, §4, §5
(In general: Agar dilution tests growth on a series of plates holding different concentrations.)

Assay [6] concerns Streptococcus bovis A-5169. Described as above. Particulars: 35-37° C., 20 to 24 hours, unit assumed. The method, then: as §1, §4, §5
The subject of assay [7] is Nocardia asteroides ATCC997O. Described as above. The conditions noted are these: 35-37° C., 20 to 24 hours, unit assumed. The method, then:
as §1, §4, §5

In assay [8] the test system is Streptococcus pyogenes PIU 2548. The description is as above. The conditions noted are these: 35-37° C., 20 to 24 hours, unit assumed. The method, then:
as §1, §4, §5

Assay [9] has as its system Staphylococcus epidermidis 3519. The description is as above. The conditions noted are these: 35-37° C., 20 to 24 hours, unit assumed. The method, then:
as §1, §4, §5

The subject of assay [10] is Staphylococcus aureus A5177. Described as above. The conditions noted are these: 35-37° C., 20 to 24 hours, unit assumed. The method, then:
as §1, §4, §5

For the next assay, the system named is Escherichia coli JUHL. Described as above. Particulars: 35-37° C., 20 to 24 hours, unit assumed. The method, then: as §1, §4, §5
Assay [11] has as its system Streptococcus pyogenes EES61. Described as above. The conditions noted are these: 35-37° C., 20 to 24 hours, unit assumed. The method, then:
as §1, §4, §5

A further assay deals with Candida albicans CCH 442. The assay is described as above. Particulars: 35-37° C., 20 to 24 hours, unit assumed. The method, then: as §1, §4, §5
The test system of assay [12] is Streptococcus pyogenes 930. The description is as above. The conditions noted are these: 35-37° C., 20 to 24 hours, unit assumed. The method, then: as §1, §4, §5
In assay [13] the test system is Staphylococcus aureus NCTC10649M. The description is as above. Particulars: 35-37° C., 20 to 24 hours, unit assumed. The method, then:
as §1, §4, §5

Another assay has as its system Escherichia coli SS. Described as above. The conditions noted are these: 35-37° C., 20 to 24 hours, unit assumed. The method, then: as §1, §4, §5
Assay [14] deals with Staphylococcus aureus ATCC 6538P. Described as above. The conditions noted are these: 35-37° C., 20 to 24 hours, unit assumed. The method, then: as §1, §4, §5
Assay [15] deals with Micrococcus luteus ATCC 4698. Described as above. The conditions noted are these: 35-37° C., 20 to 24 hours, unit assumed. The method, then:
as §1, §4, §5

Assay [16] has as its system Staphylococcus aureus A-5278. The description is as above. Particulars: 35-37° C., 20 to 24 hours, unit assumed. The method, then: as §1, §4, §5
In assay [17] the test system is Staphylococcus aureus 1775. Described as above. Particulars: 35-37° C., 20 to 24 hours, unit assumed. The method, then:
as §1, §4, §5

Assay [18] relates to Streptococcus agalactiae CMX 508. Described as above. The conditions noted are these: 35-37° C., 20 to 24 hours, unit assumed. The method, then: as §1, §4, §5
In assay [19] the test system is Streptococcus pneumonia 5979. The assay is described as follows: Separate in vitro antibacterial assay (H. Influenza / S. Pneumonia). The conditions noted are these: protocol as for Table 1, unit assumed. The method, then: as §1, §2, §3
For assay [20], the system named is Staphylococcus aureus CMX 642A. The assay can be described thus: In vitro antibacterial MIC, agar dilution (BHI agar). The conditions noted are these: 35-37° C., 20 to 24 hours, unit assumed. The method, then:
as §1, §4, §5

The test system of assay [21] is Micrococcus luteus ATCC 9341. Described as above. The conditions noted are these: 35-37° C., 20 to 24 hours, unit assumed. The method, then: as §1, §4, §5
The subject of assay [22] is Staphylococcus aureus CMX 553. The assay is described as above. The conditions noted are these: 35-37° C., 20 to 24 hours, unit assumed. The method, then: as §1, §4, §5

Converted amounts (≈) assume the structure as drawn. Where only a bound is given, the exact number is not on record here.

A word on the MIC: it is the least concentration at which growth counts as inhibited. Lower therefore signals greater potency. `CCC1OC(=O)C(C)C(=O)C(C)C(OC2OC(C)CC(N(C)C)C2O)C(C)(OC(=O)NC(=O)c2ccccc2)CC(C)C(=NO)C(C)C2OC(=O)OC12C` (centres unmarked) [Ex. 1, Compound of Formula (IV-A): wherein A is —O—; X is N—OH; —M— is Absent, R^2 is Phenyl; and R^p is Hydrogen]: the MIC in the assay with Escherichia coli DC-2 was 100 µg/mL; in assay [5] it was 50 µg/mL; in assay [6] it was 0.02 µg/mL; in assay [7] it was 0.78 µg/mL; in assay [8], 1.56 µg/mL; in [9] it was 0.39 µg/mL. The MIC in [10] is 0.39 µg/mL; in the assay with Escherichia coli JUHL, 50 µg/mL; in assay [11] it was 0.02 µg/mL; against Candida albicans CCH 442 it was more than 100 µg/mL; in [12], more than 100 µg/mL; in [13], 0.39 µg/mL. For the same compound, the MIC against Escherichia coli SS is 0.39 µg/mL; in assay [14] it was 0.39 µg/mL; in [15], 0.39 µg/mL; in assay [16], more than 100 µg/mL; in assay [17] it was more than 100 µg/mL; in assay [18] it was 0.02 µg/mL. In addition, the MIC (antibacterial activity, Table 2) in assay [1] is 0.03 µg/mL; in [2], 0.03 µg/mL; in assay [3] it was 2 µg/mL; in assay [4], 8 µg/mL; in assay [19], more than 64 µg/mL.
With `CCC1OC(=O)C(C)C(=O)C(C)C(OC2OC(C)CC(N(C)C)C2O)C(C)(OC(N)=O)CC(C)C(=NO)C(C)C2OC(=O)OC12C` (centres unmarked) [Ex. 2, Compound of Formula (II-A), wherein A is —O—; X is N—OH; —M— is Absent; R^2 is Hydrogen, and R^p is Hydrogen], the MIC against Escherichia coli DC-2 is more than 100 µg/mL; in [5], 50 µg/mL; in [6] it was 0.2 µg/mL; in assay [7], 6.2 µg/mL; in assay [8] it was 3.1 µg/mL; in assay [9] it was 1.56 µg/mL. Moreover, the MIC in [10] is 3.1 µg/mL; against Escherichia coli JUHL, more than 100 µg/mL; in assay [11], 0.39 µg/mL; in the assay on Candida albicans CCH 442 it was more than 100 µg/mL; in assay [12] it was more than 100 µg/mL; in assay [13] it was 1.56 µg/mL. The MIC against Escherichia coli SS is 1.56 µg/mL; in assay [14] it was 1.56 µg/mL; in assay [15], 1.56 µg/mL; in [16], more than 100 µg/mL; in assay [17] it was more than 100 µg/mL; in assay [18], 0.39 µg/mL. Also, the MIC (antibacterial activity, Table 2) in assay [1] is 0.25 µg/mL; in assay [2], 0.25 µg/mL; in [3], 8 µg/mL; in assay [4], 8 µg/mL; in assay [19], more than 128 µg/mL.
`CC[C@H]1OC(=O)[C@H](C)[C@@H](O[C@H]2C[C@@](C)(OC)[C@@H](O)[C@H](C)O2)[C@H](C)[C@@H](O[C@@H]2O[C@H](C)C[C@H](N(C)C)[C@H]2O)[C@](C)(O)C[C@@H](C)C(=O)[C@H](C)[C@@H](O)[C@]1(C)O` [Ery. A, Erythromycin A, reference compound]: the MIC against Escherichia coli DC-2 is more than 100 µg/mL; in assay [5], 3.1 µg/mL (≈ 4.22 µM); in assay [6], 0.02 µg/mL (≈ 0.0273 µM); in [7], 0.1 µg/mL (≈ 0.136 µM); in assay [20], 0.39 µg/mL (≈ 0.531 µM); in assay [21], 0.05 µg/mL (≈ 0.0681 µM). Moreover, the MIC was 6.2 µg/mL (≈ 8.45 µM) in assay [8]; 0.39 µg/mL (≈ 0.531 µM) in [9]; 3.1 µg/mL (≈ 4.22 µM) in assay [10]; more than 100 µg/mL with Escherichia coli JUHL; 0.39 µg/mL (≈ 0.531 µM) in [22]; 0.05 µg/mL (≈ 0.0681 µM) in [11]. Also, the MIC in the assay with Candida albicans CCH 442 is more than 100 µg/mL; in [12] it was more than 100 µg/mL; in [13], 0.39 µg/mL (≈ 0.531 µM); against Escherichia coli SS, 0.78 µg/mL (≈ 1.06 µM); in [14], 0.2 µg/mL (≈ 0.273 µM); in assay [15] it was 0.2 µg/mL (≈ 0.273 µM). Further, the MIC in [16] was more than 100 µg/mL; in [17], more than 100 µg/mL; in assay [18], 0.05 µg/mL (≈ 0.0681 µM). The MIC (antibacterial activity, Table 2) in assay [1] turned out to be 0.06 µg/mL (≈ 0.0818 µM); in assay [2], 0.06 µg/mL (≈ 0.0818 µM); in assay [3], 16 µg/mL (≈ 21.8 µM); in assay [4], 4 µg/mL (≈ 5.45 µM).
